Measurements: BindingDB's records for doi:10.1021/jm800797n (University of Tartu, 2009)

How the values were obtained:
[1] = target: cAMP-dependent protein kinase catalytic subunit alpha (Bos taurus) (UniProt P00517); assay: The assay is based on the kinase-bound labeled fluorescent probe can be displaced by competitive inhibitors, which can be registered by measurement of the resulting change in fluorescence properties of the solution. The binding curves were fitted using GraphPad Prism version 4.03 using sigmoidal dose-respons; settings: pH 7.5
[2] = target: cAMP-dependent protein kinase catalytic subunit alpha (Bos taurus) (UniProt P00517); assay: The IC50 values of the inhibitors corresponding to the concentration of the inhibitor decreasing the enzyme activity 50% were measured using fluorescent-labeled substrate. The phosphorylation reaction was initiated by the addition of ATP. At fixed time points, the reaction was analyzed by normal phase TLC. The visualization and quantification
[3] = target: RAC-gamma serine/threonine-protein kinase (Homo sapiens, UniProt Q9Y243); assay: Fluorometric TLC Kinase Assay
Chain of RAC-gamma serine/threonine-protein kinase (Q9Y243 whole entry): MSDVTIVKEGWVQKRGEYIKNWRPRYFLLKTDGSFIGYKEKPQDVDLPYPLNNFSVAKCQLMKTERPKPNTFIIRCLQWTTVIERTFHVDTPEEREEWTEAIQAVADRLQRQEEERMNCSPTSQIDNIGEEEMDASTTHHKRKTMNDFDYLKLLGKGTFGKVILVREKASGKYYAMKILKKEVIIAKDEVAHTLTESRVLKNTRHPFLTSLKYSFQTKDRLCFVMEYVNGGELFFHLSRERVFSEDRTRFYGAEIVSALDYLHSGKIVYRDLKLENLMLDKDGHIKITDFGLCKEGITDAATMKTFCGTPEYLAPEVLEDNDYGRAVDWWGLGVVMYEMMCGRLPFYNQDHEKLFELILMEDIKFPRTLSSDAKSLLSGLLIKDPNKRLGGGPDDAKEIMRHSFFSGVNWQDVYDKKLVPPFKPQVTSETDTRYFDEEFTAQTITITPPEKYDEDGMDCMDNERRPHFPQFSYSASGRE

SMILES | IC50 [2] | IC50 [3] | Kd [1]
O=S(=O)(NCCNC/C=C/c1ccc(Br)cc1)c1cccc2cnccc12 | – | – | 23 nM
N=C(N)NCCC[C@@H](NC(=O)[C@@H](CCCNC(=N)N)NC(=O)[C@@H](CCCNC(=N)N)NC(=O)[C@@H](CCCNC(=N)N)NC(=O)[C@@H](CCCNC(=N)N)NC(=O)[C@@H](CCCNC(=N)N)NC(=O)CCCCCNC(=O)[C@H]1O[C@@H](n2cnc3c(N)ncnc32)[C@H](O)[C@@H]1O)C(N)=O | 8.3 nM | – | –
NC(=O)[C@H](Cc1ccc(C(=O)c2ccccc2)cc1)NC(=O)CCCCCNC(=O)[C@H]1O[C@@H](n2cnc3c(N)ncnc32)[C@H](O)[C@@H]1O [6-{[(2S,3S,4R,5R)-5-(6-amino-9H-purin-9-yl)-3,4-dihydroxyoxolan-2-yl]formamido}-N-[(1S)-2-(4-benzoylphenyl)-1-carbamoylethyl]hexanamide] | – | – | > 100000 nM
N=C(N)NCCC[C@@H](NC(=O)[C@@H](CCCNC(=N)N)NC(=O)[C@@H](CCCNC(=N)N)NC(=O)[C@@H](CCCNC(=N)N)NC(=O)[C@@H](CCCNC(=N)N)NC(=O)[C@@H](CCCNC(=N)N)NC(=O)CCCCCNC(=O)[C@@H](CCCCN)NC(=O)CCCCCNC(=O)[C@H]1O[C@@H](n2cnc3c(N)ncnc32)[C@H](O)[C@@H]1O)C(N)=O [(2R)-6-amino-2-(6-{[(2S,3S,4R,5R)-5-(6-amino-9H-purin-9-yl)-3,4-dihydroxyoxolan-2-yl]formamido}hexanamido)-N-(5-{[(1R)-4-carbamimidamido-1-{[(1R)-4-carbamimidamido-1-{[(1R)-4-carbamimidamido-1-{[(1R)-4-carbamimidamido-1-{[(1R)-4-carbamimidamido-1-{[(1R)-4-carbamimidamido-1-carbamoylbutyl]carbamoyl}butyl]carbamoyl}butyl]carbamoyl}butyl]carbamoyl}butyl]carbamoyl}butyl]carbamoyl}pentyl)hexanamide] | – | – | < 0.5 nM

Further lines, with some results ahead:

IC50 [2] | IC50 [3] | SMILES | Kd [1]
– | 2040 nM | C[C@@H](NC(=O)CCCCCNC(=O)[C@@H]1C[C@@H](O)[C@H](n2cnc3c(N)ncnc32)C1)C(=O)NCCCCCC(=O)N[C@H](CCCNC(=N)N)C(=O)N[C@H](CCCNC(=N)N)C(N)=O [6-{[(1S,3R,4R)-3-(6-amino-9H-purin-9-yl)-4-hydroxycyclopentyl]formamido}-N-[(1R)-1-[(5-{[(1R)-4-carbamimidamido-1-{[(1R)-4-carbamimidamido-1-carbamoylbutyl]carbamoyl}butyl]carbamoyl}pentyl)carbamoyl]ethyl]hexanamide] | –
2.41 nM | – | NC(=O)[C@@H](CCCN=C(N)N)NC(=O)[C@@H](CCCN=C(N)N)NC(=O)[C@@H](CCCN=C(N)N)NC(=O)[C@@H](CCCN=C(N)N)NC(=O)[C@@H](CCCN=C(N)N)NC(=O)[C@@H](CCCN=C(N)N)NC(=O)CCCCCNC(=O)[C@@H]1C[C@@H](O)[C@H](n2cnc3c(N)ncnc32)C1 [6-{[(1S,3R,4R)-3-(6-amino-9H-purin-9-yl)-4-hydroxycyclopentyl]formamido}-N-[(1R)-4-carbamimidamido-1-{[(1R)-4-carbamimidamido-1-{[(1R)-4-carbamimidamido-1-{[(1R)-4-carbamimidamido-1-{[(1R)-4-carbamimidamido-1-{[(1R)-4-carbamimidamido-1-carbamoylbutyl]carbamoyl}butyl]carbamoyl}butyl]carbamoyl}butyl]carbamoyl}butyl]carbamoyl}butyl]hexanamide] | –
5.3 nM | 30.7 nM | NC(=O)[C@@H](CCCN=C(N)N)NC(=O)[C@@H](CCCN=C(N)N)NC(=O)[C@@H](CCCN=C(N)N)NC(=O)[C@@H](CCCN=C(N)N)NC(=O)[C@@H](CCCN=C(N)N)NC(=O)[C@@H](CCCN=C(N)N)NC(=O)CCCCCNCCNS(=O)(=O)c1cccc2cnccc12 [N-[(1R)-4-carbamimidamido-1-{[(1R)-4-carbamimidamido-1-{[(1R)-4-carbamimidamido-1-{[(1R)-4-carbamimidamido-1-{[(1R)-4-carbamimidamido-1-{[(1R)-4-carbamimidamido-1-carbamoylbutyl]carbamoyl}butyl]carbamoyl}butyl]carbamoyl}butyl]carbamoyl}butyl]carbamoyl}butyl]-6-{[2-(isoquinoline-5-sulfonamido)ethyl]amino}hexanamide] | –
